Source: publication PMC7070898 (Clinical and Translational Science, 2019)

Assay: Holter ECG, concentration-QTcF, by-time point and categorical analysis
Assay type: in vivo, human
Details: for mean ΔΔQTcF, by‐time point analysis: 100 mg dose group (n = 6); for Predicted mean ΔΔQTcF: linear mixed model; for Cmax: human, in vivo, Geometric mean Cmax

Q: Which results are given for `C=CC(=O)N1CCC(CNc2ncnc(N)c2-c2ccc(Oc3ccccc3)cc2)CC1` [evobrutinib]?
A: Geometric mean Cmax (25 mg dose group, day 1, parts 1 and 2 pooled): 86.48 ng/mL; treatment‐emergent T wave morphological abnormalities (50 mg and 100 mg dose groups, day 1, 6‐hour and 8‐hour postdose): reported in two evobrutinib‐treated subjects; mean ΔΔQTcF, by‐time point analysis (6‐hour postdose): 7.1 ms; mean ΔΔQTcF, by‐time point analysis (8‐hour postdose): 5.6 ms; mean ΔΔQTcF range (100 mg dose group, three time points): 5.6 to 7.2 ms; Geometric mean Cmax (500 mg dose group, day 1): 1,512.3 ng/mL; subjects with change from baseline in QTcF between 30 ms and 60 ms (2 of 81 subjects, both in the 200 mg dose group): 2.5%; mean ΔΔQTcF over the range of doses (all time points, except the 100 mg dose group): < 5 ms; absolute QTcF value (any dose group, any time point): ≤ 450 ms; Predicted mean ΔΔQTcF (at geometric mean Cmax of 75 mg dose group): -0.82 ms; Predicted mean ΔΔQTcF (at geometric mean Cmax of 200 mg dose group): -0.94 ms; Predicted mean ΔΔQTcF (at geometric mean Cmax of 350 mg dose group): -0.98 ms; Cmax (50 mg, 50 mg dose group, day 1): 234 ng/mL; Cmax (75 mg, 75 mg dose group, day 1): 254 ng/mL; Cmax (100 mg, 100 mg dose group, day 1): 309 ng/mL; Cmax (350 mg, 350 mg dose group, day 1): 846 ng/mL
